Assay results as given in patent publication US20250059179A1, “Heterocyclic Compounds and Methods of Use” (AMGEN INC., priority 2021, published 2025).

Key:
[1] = target: His-tagged KRAS G12D protein (Homo sapiens, UniProt P01116, G12D); assay: KRAS G12D TR-FRET Assay; type: binding; settings: biotinylated KRPep-2d substrate, 10 μM GDP;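 also: europium anti-His antibody paired with streptavidin-d2 as FRET partners, initial 30 min incubation, then peptide 1 h and detection reagents 1 h, all at room temperature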
His-tagged KRAS G12D protein, sequence (P01116 1-188 isoform P01116-2 G12D): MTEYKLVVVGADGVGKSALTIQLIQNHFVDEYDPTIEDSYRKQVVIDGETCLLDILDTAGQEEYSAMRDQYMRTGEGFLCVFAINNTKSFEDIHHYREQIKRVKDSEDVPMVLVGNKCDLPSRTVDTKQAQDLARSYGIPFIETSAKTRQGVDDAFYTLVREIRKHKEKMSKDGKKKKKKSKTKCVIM

[2] = target: GDP-bound KRAS protein (aa 1-169), containing both G12D and C118A amino acid substitutions (Homo sapiens, UniProt P01116, C118A/G12D); assay: KRAS G12D Coupled Nucleotide Exchange Assay; type: biochemical; settings: 2 h compound pre-incubation; SOS-mediated nucleotide exchange, cRAF AlphaScreen readout;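 also: IC50 obtained by fitting the AlphaScreen signal with a four-parameter logistic curve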
GDP-bound KRAS protein (aa 1-169), containing both G12D and C118A amino acid substitutions, sequence (P01116 1-169 isoform P01116-2 G12D/C118A): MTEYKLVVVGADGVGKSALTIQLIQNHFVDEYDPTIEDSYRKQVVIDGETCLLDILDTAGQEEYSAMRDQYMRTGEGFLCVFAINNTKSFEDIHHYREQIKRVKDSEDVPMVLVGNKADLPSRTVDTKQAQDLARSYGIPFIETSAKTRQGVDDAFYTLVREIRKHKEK

Row | SMILES | IC50 [1] | Avg 2 h Coupled Exchange IC50 [2]
1 | CN1CCC[C@H]1COc1nc(N2CCCNC(=O)C2)c2cc(Cl)c(-c3cccc4sc(N)nc34)c(F)c2n1 [Example 22, 4-(7-(2-aminobenzo[d]thiazol-4-yl)-6-chloro-8-fluoro-2-(((S)-1-methylpyrrolidin-2-yl)methoxy)quinazolin-4-yl)-1,4-diazepan-2-one] | 168 nM | 114 nM
2 | CN1CCC[C@H]1COc1nc(N2CCNC(=O)C2)c2cc(Cl)c(-c3cccc4sc(N)nc34)c(F)c2n1 [Example 23, 4-(7-(2-aminobenzo[d]thiazol-4-yl)-6-chloro-8-fluoro-2-(((S)-1-methylpyrrolidin-2-yl)methoxy)quinazolin-4-yl)piperazin-2-one] | 678 nM | 166 nM
3 | CN1CCC[C@H]1COc1nc(N2CCNC(=O)CC2)c2cc(Cl)c(-c3cccc4sc(N)nc34)c(F)c2n1 [Example 24, 1-(7-(2-aminobenzo[d]thiazol-4-yl)-6-chloro-8-fluoro-2-(((S)-1-methylpyrrolidin-2-yl)methoxy)quinazolin-4-yl)-1,4-diazepan-5-one] | 158 nM | 172 nM
4 | CN1CCC[C@H]1COc1nc(N2CCN[C@@H](CO)C2)c2cc(Cl)c(-c3cccc4sc(N)nc34)c(F)c2n1 [Example 25, ((2R)-4-(7-(2-aminobenzo[d]thiazol-4-yl)-6-chloro-8-fluoro-2-(((S)-1-methylpyrrolidin-2-yl)methoxy)quinazolin-4-yl)piperazin-2-yl)methanol] | 239 nM | 181 nM
5 | CN1CCC[C@H]1COc1nc(N2CCNC[C@@H]2CCO)c2cc(Cl)c(-c3cccc4sc(N)nc34)c(F)c2n1 [Example 36, 2-((2S)-1-(7-(2-aminobenzo[d]thiazol-4-yl)-6-chloro-8-fluoro-2-(((S)-1-methylpyrrolidin-2-yl)methoxy)quinazolin-4-yl)piperazin-2-yl)ethan-1-ol] | 5850 nM | 2250 nM
6 | CN1C[C@H](F)C[C@H]1COc1nc(N2C[C@H]3COC[C@@H](C2)N3)c2cc(Cl)c(-c3ccc(F)c4sc(N)nc34)c(F)c2n1 [Example 41, 4-(4-((1R,5S)-3-oxa-7,9-diazabicyclo[3.3.1]nonan-7-yl)-6-chloro-8-fluoro-2-(((2S,4R)-4-fluoro-1-methylpyrrolidin-2-yl)methoxy)quinazolin-7-yl)-7-fluorobenzo[d] thiazol-2-amine] | 79 nM | 65 nM
7 | Nc1nc2c(-c3c(Cl)cc4c(N5CCNCC5)nc(OCC56CCCN5CCC6)nc4c3F)cccc2s1 [Example 44, 4-(6-chloro-8-fluoro-4-(piperazin-1-yl)-2-((tetrahydro-1H-pyrrolizin-7a(5H)-yl)methoxy)quinazolin-7-yl)benzo[d] thiazol-2-amine] | 30 nM | 14 nM
8 | CN1C[C@H](F)C[C@H]1COc1nc(N2CCNCC2)c2cc(Cl)c(-c3cccc4sc(N)nc34)c(F)c2n1 [Example 49, 4-(6-chloro-8-fluoro-2-(((2S,4R)-4-fluoro-1-methyl-pyrrolidin-2-yl)methoxy)-4-(piperazin-1-yl)quinazolin-7-yl)benzo[d] thiazol-2-amine] | 141 nM | 38 nM
9 | Nc1nc2c(-c3c(Cl)cc4c(N5CCNCC5)nc(OCC56CCCN5CC(F)(F)C6)nc4c3F)cccc2s1 (centres unmarked) [Example 54, 4-(6-chloro-2-((2,2-difluorotetra-hydro-1H-pyrrolizin-7a(5H)-yl)methoxy)-8-fluoro-4-(piperazin-1-yl)quinazolin-7-yl)benzo[d] thiazol-2-amine] | 87 nM | 79 nM
10 | Nc1nc2c(-c3c(Cl)cc4c(N5CCNCC5)nc(OC[C@@H]5C[C@H](F)CN5)nc4c3F)cccc2s1 [Example 55, 4-(6-chloro-8-fluoro-2-(((2S,4S)-4-fluoro-pyrrolidin-2-yl)methoxy)-4-(piperazin-1-yl)quinazolin-7-yl)benzo[d] thiazol-2-amine] | 285 nM | 106 nM
11 | Nc1nc2c(-c3c(Cl)cc4c(N5CCNCC5)nc(OC[C@@H]5CC(F)(F)CN5)nc4c3F)cccc2s1 [Example 59, 4-(6-chloro-2-(((S)-4,4-difluoro-pyrrolidin-2-yl)methoxy)-8-fluoro-4-(piperazin-1-yl)quinazolin-7-yl)benzo[d] thiazol-2-amine] | 687 nM | 321 nM
12 | CN1C[C@@H](F)C[C@H]1COc1nc(N2CCNCC2)c2cc(Cl)c(-c3cccc4sc(N)nc34)c(F)c2n1 [Example 62, 4-(6-chloro-8-fluoro-2-(((2S,4S)-4-fluoro-1-methyl-pyrrolidin-2-yl)methoxy)-4-(piperazin-1-yl)quinazolin-7-yl)benzo[d] thiazol-2-amine] | 673 nM | 394 nM
13 | CCN1CCC(COc2nc(N3CCNCC3)c3cc(Cl)c(-c4cccc5sc(N)nc45)c(F)c3n2)CC1 [Example 63, 4-(6-chloro-2-((1-ethylpiperidin-4-yl)methoxy)-8-fluoro-4-(piperazin-1-yl)quinazolin-7-yl)benzo[d] thiazol-2-amine] | 473 nM | 429 nM
14 | Nc1nc2c(-c3c(Cl)cc4c(N5CCNCC5)nc(OC[C@@H]5CCC(=O)N5)nc4c3F)cccc2s1 [Example 68, (5S)-5-(((7-(2-aminobenzo[d]thiazol-4-yl)-6-chloro-8-fluoro-4-(piperazin-1-yl)quinazolin-2-yl)oxy)methyl) pyrrolidin-2-one] | 829 nM | 718 nM

The next lines start with the values.

Row | IC50 [1] | Avg 2 h Coupled Exchange IC50 [2] | SMILES
15 | 1210 nM | 409 nM | CN1CCC[C@H]1COc1nc(N2CCN[C@@H](CC#N)C2)c2cc(Cl)c(-c3cccc4sc(N)nc34)c(F)c2n1 [Example 26, 2-((2S)-4-(7-(2-aminobenzo[d]thiazol-4-yl)-6-chloro-8-fluoro-2-(((S)-1-methylpyrrolidin-2-yl)methoxy)quinazolin-4-yl)piperazin-2-yl)acetonitrile]
16 | 1210 nM | 429 nM | CN1CCC[C@H]1COc1nc(N2C[C@H]3CC[C@@H]2CN3)c2cc(Cl)c(-c3cccc4sc(N)nc34)c(F)c2n1 [Example 27, 4-(4-((1R,4R)-2,5-diazabicyclo[2.2.2]octan-2-yl)-6-chloro-8-fluoro-2-(((S)-1-methylpyrrolidin-2-yl)methoxy)quinazolin-7-yl)benzo[d]thiazol-2-amine]
17 | 1970 nM | 388 nM | CN1CCC[C@H]1COc1nc(N2CCNC[C@@H]2CO)c2cc(Cl)c(-c3cccc4sc(N)nc34)c(F)c2n1 [Example 37, ((2R)-1-(7-(2-aminobenzo[d]thiazol-4-yl)-6-chloro-8-fluoro-2-(((S)-1-methylpyrrolidin-2-yl)methoxy)quinazolin-4-yl)piperazin-2-yl)methanol]
18 | 12 nM | 12 nM | Nc1nc2c(-c3c(Cl)cc4c(N5C[C@H]6COC[C@@H](C5)N6)nc(OC[C@@]56CCCN5C[C@H](F)C6)nc4c3F)ccc(F)c2s1 [Example 42, 4-(4-((1R,5S)-3-oxa-7,9-diazabicyclo[3.3.1]nonan-7-yl)-6-chloro-8-fluoro-2-(((2R,7aS)-2-fluorotetrahydro-1H-pyrrolizin-7a(5H)-yl)methoxy)quinazolin-7-yl)-7-fluorobenzo[d] thiazol-2-amine]
19 | 3190 nM | 3290 nM | Nc1nc2c(-c3c(Cl)cc4c(N5CCNCC5)nc(OCC56CCCN5C(=O)CC6)nc4c3F)cccc2s1 (centres unmarked) [Example 43, 7a-(((7-(2-aminobenzo[d]thiazol-4-yl)-6-chloro-8-fluoro-4-(piperazin-1-yl)quinazolin-2-yl)oxy)methyl)hexahydro-3H-pyrrolizin-3-one]
20 | 159 nM | 26 nM | C[C@@H](CN(C)C)Oc1nc(N2CCNCC2)c2cc(Cl)c(-c3cccc4sc(N)nc34)c(F)c2n1 [Example 48, 4-(6-chloro-2-(((S)-1-(dimethylamino)propan-2-yl)oxy)-8-fluoro-4-(piperazin-1-yl)quinazolin-7-yl)benzo[d] thiazol-2-amine]
21 | 1190 nM | 446 nM | CN1CCCC[C@H]1COc1nc(N2CCNCC2)c2cc(Cl)c(-c3cccc4sc(N)nc34)c(F)c2n1 [Example 64, 4-(6-chloro-8-fluoro-2-(((S)-1-methyl-piperidin-2-yl)methoxy)-4-(piperazin-1-yl)quinazolin-7-yl)benzo[d] thiazol-2-amine]
22 | 1840 nM | 504 nM | CN1CC(F)(F)C[C@H]1COc1nc(N2CCNCC2)c2cc(Cl)c(-c3cccc4sc(N)nc34)c(F)c2n1 [Example 65, 4-(6-chloro-2-(((S)-4,4-difluoro-1-methyl-pyrrolidin-2-yl)methoxy)-8-fluoro-4-(piperazin-1-yl)quinazolin-7-yl)benzo[d] thiazol-2-amine]
23 | 1620 nM | 549 nM | Nc1nc2c(-c3c(Cl)cc4c(N5CCNCC5)nc(OC[C@@H]5CCCN5CC(F)F)nc4c3F)cccc2s1 [Example 66, 4-(6-chloro-2-(((S)-1-(2,2-difluoroethyl)pyrrolidin-2-yl)methoxy)-8-fluoro-4-(piperazin-1-yl)quinazolin-7-yl)benzo[d] thiazol-2-amine]
24 | 1620 nM | 670 nM | CN(C)C1CN(c2nc(N3CCNCC3)c3cc(Cl)c(-c4cccc5sc(N)nc45)c(F)c3n2)C1 [Example 67, 4-(6-chloro-2-(3-(dimethylamino)azetidin-1-yl)-8-fluoro-4-(piperazin-1-yl)quinazolin-7-yl)benzo[d] thiazol-2-amine]
25 | 7720 nM | 1890 nM | C[C@H](CN(C)C)Oc1nc(N2CCNCC2)c2cc(Cl)c(-c3cccc4sc(N)nc34)c(F)c2n1 [Example 69, 4-(6-chloro-2-(((R)-1-(dimethylamino)propan-2-yl)oxy)-8-fluoro-4-(piperazin-1-yl)quinazolin-7-yl)benzo[d] thiazol-2-amine]
